Measured values from US20250288704A1, “CXCR4-LIGANDS FOR DIAGNOSTIC AND THERAPEUTIC USE AND PRECURSORS THEREOF” (priority 2021, published 2025).
Non-standard residues stand in square brackets, D forms with d. Residues, ends and D or L forms follow the SMILES beside them. Groups on a side chain read outwards from the residue. *: point of attachment. DOTA = O=C(O)CN1CCN(CC(=O)O)CCN(CC(=O)*)CCN(CC(=O)O)CC1; 2Nal = N[C@@H](Cc1ccc2ccccc2c1)C(=O)O; dNMeOrn = CN[C@H](CCCN)C(=O)O; 4Abz = Nc1ccc(C(=O)O)cc1; dDap = NC[C@@H](N)C(=O)O

What was measured:
[1] = Biodistribution in Jurkat tumor-bearing CB-17 SCID mice; assay type: in vivo; parameters: tissue to tissue ratio at 1 h / tissue to tissue ratio / tissue to tissue ratio at 48 h: reference not given here; settings: CB-17 SCID, mouse, in vivo, iv, total radioactivity
In short: (§1)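 Radioligand (125I, 177Lu, 99mTc, 18F or 68Ga label; roughly 0.5-20 MBq, 0.02-0.20 nmol) was injected intravenously via tail vein. Hosts were CB17-SCID mice with subcutaneous Jurkat tumors of 5-8 mm, 4-10 weeks post-inoculation. Dissected organs were weighed and counted in a γ-counter.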

[2] = test system: Jurkat tumor-bearing CB-17 SCID mice; assay: as above; assay type: in vivo; parameters: tissue to tissue ratio at 1 h / tissue to tissue ratio / tissue to tissue ratio at 48 h: reference not given here; settings: mouse, in vivo
In short: as §1

Compound C[C@@H](NC(=O)[C@@H](CCCNC(=N)N)NC(=O)[C@@H](CN)NC(=O)CN1CCN(CC(=O)O)CCN(CC(=O)O)CCN(CC(=O)O)CC1)C(=O)Nc1ccc(C(=O)NCCC[C@@H]2C(=O)N[C@@H](CCCNC(=N)N)C(=O)N[C@@H](Cc3ccc4ccccc4c3)C(=O)NCC(=O)N[C@H](Cc3ccc(O)cc3)C(=O)N2C)cc1 [CXCR4-DOTA-3 [Lu]] (cyclo([dY][dNMeOrn]([4Abz-dA-dR-dDap-DOTA])R[2Nal]G)) has a tissue to tissue ratio [1] of 229, a tissue to tissue ratio at 1 h [1] of 9.25 and a tissue to tissue ratio at 48 h [1] of 1360. For the same compound, the tissue uptake at 1 h ([1]; Tumor activity 1 h p.i.) was 8.42 %ID/g, the tissue uptake at 6 h ([1]; Tumor activity 6 h p.i.) was 6.88 %ID/g and the tissue uptake at 48 h ([1]; Tumor activity 48 h p.i.) was 5.44 %ID/g. It also gave a tissue uptake at 1 h ([1]; female, % iD/g Blood) of 0.91 %ID/g, a tissue uptake at 6 h ([1]; female, % iD/g Blood) of 0.03 %ID/g and a tissue uptake at 1 h ([1]; female, % iD/g Bone) of 0.55 %ID/g. For the same compound, the tissue uptake at 6 h ([1]; female, % iD/g Bone) was 0.28 %ID/g, the tissue uptake at 48 h ([1]; female, % iD/g Bone) was 0.18 %ID/g and the tissue uptake at 1 h ([1]; female, % iD/g Heart) was 0.53 %ID/g. The tissue uptake at 6 h ([1]; female, % iD/g Heart) was 0.09 %ID/g, the tissue uptake at 48 h ([1]; female, % iD/g Heart) was 0.06 %ID/g and the tissue uptake at 1 h ([1]; female, % iD/g Intestine) was 0.44 %ID/g. For the same compound, the tissue uptake at 6 h ([1]; female, % iD/g Intestine) was 0.44 %ID/g, the tissue uptake at 48 h ([1]; female, % iD/g Intestine) was 0.11 %ID/g and the tissue uptake at 1 h ([1]; female, % iD/g Kidney) was 14.1 %ID/g. For the same compound, the tissue uptake at 6 h ([1]; female, % iD/g Kidney) was 13.4 %ID/g, the tissue uptake at 48 h ([1]; female, % iD/g Kidney) was 4.47 %ID/g and the tissue uptake at 1 h ([1]; female, % iD/g Liver) was 8.48 %ID/g. The tissue uptake at 6 h ([1]; female, % iD/g Liver) was 9.43 %ID/g, the tissue uptake at 48 h ([1]; female, % iD/g Liver) was 8.84 %ID/g and the tissue uptake at 1 h ([1]; female, % iD/g Lung) was 1.67 %ID/g. It also gave a tissue uptake at 6 h ([1]; female, % iD/g Lung) of 0.25 %ID/g, a tissue uptake at 48 h ([1]; female, % iD/g Lung) of 0.14 %ID/g and a tissue uptake at 1 h ([1]; female, % iD/g Muscle) of 0.18 %ID/g. For the same compound, the tissue uptake at 6 h ([1]; female, % iD/g Muscle) was 0.03 %ID/g, the tissue uptake at 48 h ([1]; female, % iD/g Muscle) was 0.01 %ID/g and the tissue uptake at 1 h ([1]; female, % iD/g Pancreas) was 0.28 %ID/g. The tissue uptake at 6 h ([1]; female, % iD/g Pancreas) was 0.09 %ID/g, the tissue uptake at 48 h ([1]; female, % iD/g Pancreas) was 0.05 %ID/g and the tissue uptake at 1 h ([1]; female, % iD/g Spleen) was 1.55 %ID/g. The tissue uptake at 6 h ([1]; female, % iD/g Spleen) was 1.38 %ID/g, the tissue uptake at 48 h ([1]; female, % iD/g Spleen) was 1.32 %ID/g and the tissue uptake at 1 h ([1]; female, % iD/g Stomach) was 0.94 %ID/g. It also gave a tissue uptake at 6 h ([1]; female, % iD/g Stomach) of 0.25 %ID/g, a tissue uptake at 48 h ([1]; female, % iD/g Stomach) of 0.07 %ID/g and a tissue uptake at 1 h ([1]; female, % iD/g Tumor) of 8.42 %ID/g. The tissue uptake at 6 h ([1]; female, % iD/g Tumor) was 6.88 %ID/g, the tissue uptake at 48 h ([1]; female, % iD/g Tumor) was 5.44 %ID/g and the “Calculated tumor retention 6 h compared to the 1 h-value” [2] was 82%. The “Calculated tumor retention 48 h compared to the 1 h-value” [2] was 65%.
